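Cells were grown in 96-well plates and exposed to each compound for 48 hours at five concentrations; endpoints were interpolated linearly between bracketing concentrations, or set to the highest concentration if not reached. Here, GI50 denotes the concentration required for 50% inhibition of growth.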 Activity calls are given as the source filed them. Cut-off read from the data, not from the text of the source: active = GI50 up to about 1.1 µM and inactive = higher.
Legend:
Assay in all cases: NCI tumour cell line growth inhibition, 48 h
[1] = tested on: NCI-H226
[2] = tested on: HCT-15
[3] = tested on: T47D
[4] = tested on: SNB-19
[5] = tested on: UACC-62
[6] = tested on: OVCAR-5
[7] = tested on: COLO 205
[8] = tested on: SNB-75
[9] = tested on: OVCAR-4
[10] = tested on: MDA-N
[11] = tested on: MOLT-4
[12] = tested on: NCI/ADR-RES
[13] = tested on: IGROV-1
[14] = tested on: SK-MEL-2
[15] = tested on: K562
[16] = tested on: OVCAR-3
[17] = tested on: Hs-578T
[18] = tested on: CAKI-1
[19] = tested on: HOP-62
[20] = tested on: MCF7
[21] = tested on: KM12
[22] = tested on: NCI-H460
[23] = tested on: SN12C
[24] = tested on: MDA-MB-231
[25] = tested on: SK-MEL-28
[26] = tested on: U-251
[27] = tested on: UACC-257
[28] = tested on: SF-539
[29] = tested on: HL-60
[30] = tested on: CCRF-CEM
[31] = tested on: A498
[32] = tested on: RPMI-8226
[33] = tested on: SW-620
[34] = tested on: EKVX
[35] = tested on: SK-MEL-5
[36] = tested on: HCT-116
[37] = tested on: A549
[38] = tested on: 786-0
[39] = tested on: MDA-MB-435
[40] = tested on: ACHN
[41] = tested on: SF-295
[42] = tested on: SF-268
[43] = tested on: UO-31
[44] = tested on: DU-145
[45] = tested on: BT-549
[46] = tested on: HCC 2998
[47] = tested on: M14
[48] = tested on: LOX IMVI
[49] = tested on: Malme-3M
[50] = tested on: NCI-H23
[51] = tested on: NCI-H522
[52] = tested on: TK-10
[53] = tested on: HOP-92
[54] = tested on: OVCAR-8
[55] = tested on: PC-3
[56] = tested on: HT-29
[57] = tested on: SK-OV-3
[58] = tested on: RXF 393
[59] = tested on: SR

CCC1C(=O)OCc2c1cc1n(c2=O)Cc2cc3ccccc3nc2-1 (centres undefined)
GI50 [1]: 10800 nM (inactive)
GI50 [2]: 43400 nM
GI50 [3]: 4380 nM (inactive)
GI50 [4]: 5130 nM (inactive)
GI50 [5]: 3720 nM (inactive)
GI50 [6]: 33400 nM (inactive)
GI50 [7]: 72300 nM (inactive)
GI50 [8]: 1960 nM (inactive)
GI50 [9]: > 81800 nM (inactive)
GI50 [10]: 45600 nM (inactive)
GI50 [11]: 733 nM (active)
GI50 [12]: 8430 nM (inactive)
GI50 [13]: 17600 nM (inactive)
GI50 [14]: > 100000 nM (inactive)
GI50 [15]: 18100 nM (inactive)
GI50 [16]: > 100000 nM (inactive)
GI50 [17]: > 54300 nM (inactive)
GI50 [18]: 2170 nM (inactive)
GI50 [19]: 2080 nM (inactive)
GI50 [20]: 1590 nM (inactive)
GI50 [21]: 50900 nM (inactive)
GI50 [22]: 802 nM (active)
GI50 [23]: 5070 nM (inactive)
GI50 [24]: > 100000 nM (inactive)
GI50 [25]: 13200 nM (inactive)
GI50 [26]: 3530 nM (inactive)
GI50 [27]: 50700 nM (inactive)
GI50 [28]: 1730 nM (inactive)
GI50 [29]: 1880 nM (inactive)
GI50 [30]: 377 nM (active)
GI50 [31]: 10700 nM (inactive)
GI50 [32]: 12400 nM (inactive)
GI50 [33]: 7160 nM (inactive)
GI50 [34]: 77600 nM (inactive)
GI50 [35]: 5790 nM (inactive)
GI50 [36]: 8410 nM (inactive)
GI50 [37]: 5090 nM (inactive)
GI50 [38]: 3230 nM (inactive)
GI50 [39]: 44300 nM (inactive)
GI50 [40]: 3280 nM (inactive)
GI50 [41]: 2380 nM (inactive)
GI50 [42]: 3670 nM (inactive)
GI50 [43]: 2370 nM (inactive)
GI50 [44]: 2980 nM (inactive)
GI50 [45]: 4380 nM (inactive)
GI50 [46]: 25900 nM (inactive)
GI50 [47]: 3380 nM (inactive)
GI50 [48]: 3780 nM (inactive)
GI50 [49]: 60300 nM (inactive)
GI50 [50]: 2840 nM (inactive)
GI50 [51]: 7730 nM (inactive)
GI50 [52]: > 100000 nM (inactive)
GI50 [53]: 13100 nM (inactive)
GI50 [54]: 5690 nM (inactive)
GI50 [55]: 15400 nM (inactive)
GI50 [56]: 29500 nM (inactive)
GI50 [57]: 43600 nM (inactive)
GI50 [58]: 23800 nM (inactive)

CCN(CC)CCNc1ccc([N+](=O)[O-])c2nc3ccccc3c(N)c12
GI50 [1]: 1350 nM (inactive)
GI50 [2]: 410 nM
GI50 [3]: 662 nM (active)
GI50 [4]: 615 nM (active)
GI50 [5]: 1010 nM (active)
GI50 [6]: 621 nM (active)
GI50 [7]: 162 nM (active)
GI50 [8]: 1170 nM (inactive)
GI50 [9]: 422 nM (active)
GI50 [10]: 504 nM (active)
GI50 [11]: 223 nM (active)
GI50 [12]: 401 nM (active)
GI50 [13]: 377 nM (active)
GI50 [14]: 214 nM (active)
GI50 [15]: 316 nM (active)
GI50 [16]: 701 nM (active)
GI50 [17]: 175 nM (active)
GI50 [18]: 1230 nM (inactive)
GI50 [19]: 1480 nM (inactive)
GI50 [20]: 364 nM (active)
GI50 [21]: 293 nM (active)
GI50 [22]: 291 nM (active)
GI50 [23]: 441 nM (active)
GI50 [24]: 410 nM (active)
GI50 [25]: 998 nM (active)
GI50 [26]: 682 nM (active)
GI50 [27]: 931 nM (active)
GI50 [28]: 446 nM (active)
GI50 [29]: 297 nM (active)
GI50 [30]: 251 nM (active)
GI50 [31]: 1220 nM (inactive)
GI50 [32]: 311 nM (active)
GI50 [33]: 208 nM (active)
GI50 [34]: 428 nM (active)
GI50 [35]: 166 nM (active)
GI50 [36]: 127 nM (active)
GI50 [37]: 385 nM (active)
GI50 [38]: 361 nM (active)
GI50 [39]: 481 nM (active)
GI50 [40]: 155 nM (active)
GI50 [41]: 498 nM (active)
GI50 [42]: 482 nM (active)
GI50 [59]: 243 nM (active)
GI50 [43]: 597 nM (active)
GI50 [44]: 2940 nM (inactive)
GI50 [45]: 791 nM (active)
GI50 [47]: 456 nM (active)
GI50 [48]: 333 nM (active)
GI50 [50]: 485 nM (active)
GI50 [52]: 685 nM (active)
GI50 [53]: 755 nM (active)
GI50 [54]: 361 nM (active)
GI50 [55]: 372 nM (active)
GI50 [56]: 359 nM (active)
GI50 [57]: 726 nM (active)
GI50 [58]: 254 nM (active)
